Laboratory results as given in PubChem BioAssay (NCI).
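Protocol summary: plate cells (96-well), add compound at 5 concentrations, incubate 48 h, interpolate endpoints linearly. GI50: concentration for 50% inhibition of growth. Definition used: TGI = concentration required for complete inhibition of growth.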

Key:
Assay in all cases: NCI tumour cell line growth inhibition, 48 h
PC-3 prostate = test system: PC-3 prostate
CAKI-1 renal = test system: CAKI-1 renal
HOP-92 NSCLC = test system: HOP-92 NSCLC
RPMI-8226 leukemia = test system: RPMI-8226 leukemia
SN12C renal = test system: SN12C renal
HL-60(TB) leukemia = test system: HL-60(TB) leukemia
SF-539 CNS = test system: SF-539 CNS
ACHN renal = test system: ACHN renal
BT-549 breast = test system: BT-549 breast
SNB-19 CNS = test system: SNB-19 CNS
KM12 colon = test system: KM12 colon
TK-10 renal = test system: TK-10 renal
M14 melanoma = test system: M14 melanoma
UACC-257 melanoma = test system: UACC-257 melanoma
SF-268 CNS = test system: SF-268 CNS
SNB-75 CNS = test system: SNB-75 CNS
SF-295 CNS = test system: SF-295 CNS
OVCAR-5 ovarian = test system: OVCAR-5 ovarian
HS 578T breast = test system: HS 578T breast
OVCAR-3 ovarian = test system: OVCAR-3 ovarian
T-47D breast = test system: T-47D breast
MOLT-4 leukemia = test system: MOLT-4 leukemia
MALME-3M melanoma = test system: MALME-3M melanoma
NCI-H522 lung = test system: NCI-H522 lung
HT29 colon = test system: HT29 colon
SK-MEL-5 melanoma = test system: SK-MEL-5 melanoma
DU-145 prostate = test system: DU-145 prostate
SK-MEL-28 melanoma = test system: SK-MEL-28 melanoma
LOX IMVI melanoma = test system: LOX IMVI melanoma
OVCAR-4 ovarian = test system: OVCAR-4 ovarian
RXF 393 renal = test system: RXF 393 renal
IGROV1 ovarian = test system: IGROV1 ovarian
MCF7 breast = test system: MCF7 breast
HCC-2998 colon = test system: HCC-2998 colon
NCI-H460 lung = test system: NCI-H460 lung
MDA-MB-435 = test system: MDA-MB-435
CCRF-CEM leukemia = test system: CCRF-CEM leukemia
A549 NSCLC = test system: A549 NSCLC
MDA-MB-231 breast = test system: MDA-MB-231 breast
COLO 205 colon = test system: COLO 205 colon
SW-620 colon = test system: SW-620 colon
UACC-62 melanoma = test system: UACC-62 melanoma
NCI/ADR-RES ovarian = test system: NCI/ADR-RES ovarian
786-0 renal = test system: 786-0 renal
NCI-H226 lung = test system: NCI-H226 lung
OVCAR-8 ovarian = test system: OVCAR-8 ovarian
HCT-15 colon = test system: HCT-15 colon
A498 renal = test system: A498 renal
NCI-H23 lung = test system: NCI-H23 lung
K-562 leukemia = test system: K-562 leukemia
SR leukemia = test system: SR leukemia
HOP-62 NSCLC = test system: HOP-62 NSCLC
U251 CNS = test system: U251 CNS
SK-MEL-2 melanoma = test system: SK-MEL-2 melanoma

## O=Nc1c(-c2c(O)[nH]c3ccc([N+](=O)[O-])cc23)[nH]c2ccc(O)cc12
PC-3 prostate
  GI50: 394 nM
  TGI: > 100000 nM
CAKI-1 renal
  GI50: 332 nM
  TGI: > 100000 nM
HOP-92 NSCLC
  GI50: 2780 nM
  TGI: > 29100 nM
RPMI-8226 leukemia
  GI50: 665 nM
  TGI: 14700 nM
SN12C renal
  GI50: 366 nM
  TGI: > 100000 nM
HL-60(TB) leukemia
  GI50: 312 nM
  TGI: 1040 nM
SF-539 CNS
  GI50: 258 nM
  TGI: 827 nM
ACHN renal
  GI50: 261 nM
  TGI: > 100000 nM
BT-549 breast
  GI50: 463 nM
  TGI: > 100000 nM
SNB-19 CNS
  GI50: 465 nM
  TGI: > 100000 nM
KM12 colon
  GI50: 298 nM
  TGI: 1280 nM
TK-10 renal
  GI50: 2240 nM
  TGI: > 100000 nM
M14 melanoma
  GI50: 496 nM
  TGI: > 87000 nM
UACC-257 melanoma
  GI50: 647 nM
  TGI: > 83900 nM
SF-268 CNS
  GI50: 474 nM
  TGI: > 100000 nM
SNB-75 CNS
  GI50: 26.4 nM
  TGI: 3640 nM
SF-295 CNS
  GI50: 620 nM
  TGI: > 100000 nM
OVCAR-5 ovarian
  GI50: 1650 nM
  TGI: 51100 nM
HS 578T breast
  GI50: 345 nM
  TGI: > 100000 nM
OVCAR-3 ovarian
  GI50: 367 nM
  TGI: 3040 nM
T-47D breast
  GI50: 506 nM
  TGI: > 100000 nM
MOLT-4 leukemia
  GI50: 359 nM
  TGI: 4210 nM
MALME-3M melanoma
  GI50: 781 nM
  TGI: 45300 nM
NCI-H522 lung
  GI50: 380 nM
  TGI: 2670 nM
HT29 colon
  GI50: 12400 nM
  TGI: > 100000 nM
SK-MEL-5 melanoma
  GI50: 189 nM
  TGI: 414 nM
DU-145 prostate
  GI50: 305 nM
SK-MEL-28 melanoma
  GI50: 435 nM
  TGI: > 100000 nM
LOX IMVI melanoma
  GI50: 171 nM
  TGI: 531 nM
OVCAR-4 ovarian
  GI50: 430 nM
  TGI: > 100000 nM
RXF 393 renal
  GI50: 180 nM
  TGI: 475 nM
IGROV1 ovarian
  GI50: 312 nM
  TGI: > 100000 nM
MCF7 breast
  GI50: 247 nM
  TGI: > 100000 nM
HCC-2998 colon
  GI50: 836 nM
  TGI: > 100000 nM
NCI-H460 lung
  GI50: 320 nM
MDA-MB-435
  GI50: 406 nM
  TGI: > 57800 nM
CCRF-CEM leukemia
  GI50: 110 nM
  TGI: 12200 nM
A549 NSCLC
  GI50: 674 nM
  TGI: > 60600 nM
MDA-MB-231 breast
  GI50: 500 nM
  TGI: > 52700 nM
COLO 205 colon
  GI50: 5920 nM
  TGI: 40500 nM
SW-620 colon
  GI50: 385 nM
  TGI: > 100000 nM
UACC-62 melanoma
  GI50: 211 nM
  TGI: 439 nM
NCI/ADR-RES ovarian
  GI50: 1440 nM
  TGI: > 100000 nM
786-0 renal
  GI50: 319 nM
  TGI: > 100000 nM
NCI-H226 lung
  GI50: 383 nM
  TGI: > 100000 nM
OVCAR-8 ovarian
  GI50: 360 nM
  TGI: > 100000 nM
HCT-15 colon
  GI50: 376 nM
  TGI: > 100000 nM
A498 renal
  GI50: 218 nM
  TGI: 1240 nM
NCI-H23 lung
  GI50: 549 nM
  TGI: > 49500 nM
K-562 leukemia
  GI50: 456 nM
  TGI: > 37700 nM
SR leukemia
  GI50: 258 nM
  TGI: 12600 nM
HOP-62 NSCLC
  GI50: 524 nM
  TGI: > 33600 nM
U251 CNS
  GI50: 325 nM
  TGI: > 35100 nM
SK-MEL-2 melanoma
  GI50: 293 nM
  TGI: 757 nM
